Earlier results on two compounds are cited in patent US20080139609A1, “GRANISETRON COMPOSITIONS” (priority 2006, published 2008).

The conditions of data set [1]: in water and in normal saline at 20° C.
The test system of data set [2] is other serotonin receptors. The settings on record: selective 5-HT3 receptor antagonist.

For `CN1C2CCCC1CC(NC(=O)c1nn(C)c3ccccc13)C2.Cl` (stereo not drawn) [Granisetron hydrochloride, endo-N-(9-methyl-9-azabicyclo[3.3.1]non-3-yl)-1-methyl-1H-indazole-3-carboxamide hydrochloride], in data set [1], the Solubility result is recorded as “readily soluble”.

`CN1C2CCCC1CC(NC(=O)c1nn(C)c3ccccc13)C2` (centres unmarked) [Granisetron]: in data set [2], the “Affinity for other serotonin receptors” value is reported as “little or no affinity”.
